Experimental data published in patent publication US20230130766A1 (SALK INSTITUTE FOR BIOLOGICAL STUDIES, priority 2020, published 2023).

target: T1, ULK1 (Homo sapiens, UniProt O75385); assay: ULK1 inhibition assay; format: biochemical; conditions: * = tested as a mixture of regioisomers
T1 sequence (O75385 1-1050): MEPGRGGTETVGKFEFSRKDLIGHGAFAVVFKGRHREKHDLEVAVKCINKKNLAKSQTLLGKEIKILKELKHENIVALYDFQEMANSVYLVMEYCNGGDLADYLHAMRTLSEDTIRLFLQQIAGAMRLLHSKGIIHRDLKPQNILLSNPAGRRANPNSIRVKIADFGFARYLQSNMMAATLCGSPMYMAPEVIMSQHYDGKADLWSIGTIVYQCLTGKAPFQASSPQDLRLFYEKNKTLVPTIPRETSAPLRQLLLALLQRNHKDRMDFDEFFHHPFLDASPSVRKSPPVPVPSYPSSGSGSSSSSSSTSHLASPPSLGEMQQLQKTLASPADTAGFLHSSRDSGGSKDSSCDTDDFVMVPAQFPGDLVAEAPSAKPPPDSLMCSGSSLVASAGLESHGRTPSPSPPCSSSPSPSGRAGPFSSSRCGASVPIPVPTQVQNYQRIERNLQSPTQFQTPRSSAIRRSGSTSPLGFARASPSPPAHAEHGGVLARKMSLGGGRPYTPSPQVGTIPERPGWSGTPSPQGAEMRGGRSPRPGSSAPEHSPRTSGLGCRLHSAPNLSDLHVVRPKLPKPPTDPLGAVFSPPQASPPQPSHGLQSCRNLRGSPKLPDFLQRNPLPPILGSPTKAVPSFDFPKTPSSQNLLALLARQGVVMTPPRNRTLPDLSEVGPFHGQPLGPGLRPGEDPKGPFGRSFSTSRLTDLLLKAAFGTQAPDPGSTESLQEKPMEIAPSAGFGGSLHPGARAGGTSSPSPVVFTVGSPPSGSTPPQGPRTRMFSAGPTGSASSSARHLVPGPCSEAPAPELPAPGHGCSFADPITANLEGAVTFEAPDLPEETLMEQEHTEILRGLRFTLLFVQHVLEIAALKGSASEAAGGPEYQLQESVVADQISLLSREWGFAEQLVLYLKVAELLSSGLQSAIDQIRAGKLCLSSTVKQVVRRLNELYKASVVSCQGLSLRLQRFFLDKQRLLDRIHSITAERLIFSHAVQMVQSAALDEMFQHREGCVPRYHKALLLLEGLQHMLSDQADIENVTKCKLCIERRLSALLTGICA

Compound	IC50 [nM]
CCC(=O)c1ccccc1Oc1nc(Nc2cc(OC)c(OC)c(OC)c2)ncc1Br [Compound 260]	< 200
O=C1CCc2cc(Nc3ncc(C(F)(F)F)c(OCCNC(=O)OCc4ccccc4)n3)ccc2N1 [Compound 261]	> 2000
FC(F)(F)c1cnc(NCc2cccc3ccccc23)nc1NC1CC1 [Compound 262]	> 2000
O=C1CCc2cc(Nc3nc(NC4CC4)c4ccccc4n3)ccc2N1 [Compound 263]	> 2000
FC(F)(F)c1cnc(Nc2ccc3ncccc3c2)nc1NC1CC1 [Compound 264]	< 200
COc1cc(Nc2ncc(Br)c(Oc3ccccc3)n2)cc(OC)c1OC [Compound 266]	< 200
CNC(=O)c1cccc(Oc2nc(Nc3ccc4c(c3)CCC(=O)N4)ncc2Br)c1 [Compound 268]	200 to 2000
COc1cc(Nc2ncc(Br)c(Oc3ccccc3C(=O)NC3CC3)n2)cc(OC)c1OC [Compound 270]	200 to 2000
O=C1CCc2cc(Nc3ncc(C(F)(F)F)c(Nc4cc(C5CCC5)[nH]n4)n3)ccc2N1 [Compound 271]	< 200
COCc1ccccc1Oc1nc(Nc2cc(OC)c(OC)c(OC)c2)ncc1Br [Compound 274]	< 200
FC(F)(F)c1cnc(Nc2cnc3ccccc3c2)nc1NC1CC1 [Compound 275]	< 200
COc1cc(Nc2ncc(Br)c(Oc3ccccc3C(=O)N3CCCC3)n2)cc(OC)c1OC [Compound 277]	< 200
FC(F)(F)c1cnc(Nc2cccc3ncccc23)nc1NC1CC1 [Compound 278]	> 2000
COc1cc(Nc2ncc(Br)c(Oc3ccccc3NC(=O)C3CC3)n2)cc(OC)c1OC [Compound 281]	< 200
COc1cc(Nc2ncc(Br)c(Oc3ccccc3CN(C)C)n2)cc(OC)c1OC [Compound 283]	> 2000
O=C1CCc2cc(Nc3ncc(C(=O)O)c(NC4CC4)n3)ccc2N1 [Compound 286]	> 2000
N#Cc1cnc(NC2CC2)nc1Nc1ccc2c(c1)CCC(=O)N2 [Compound 287]	> 2000
COc1cc(Nc2ncc(Br)c(Oc3ccccc3-c3nc(C)co3)n2)cc(OC)c1OC [Compound 290]	> 2000
COc1cc(Nc2ncc(Br)c(Nc3ccccc3)n2)cc(OC)c1OC [Compound 293]	< 200
COC(=O)Nc1ccccc1Oc1nc(Nc2cc(OC)c(OC)c(OC)c2)ncc1Br [Compound 296]	< 200
FC(F)(F)c1cnc(Nc2ccc3nc[nH]c3c2)nc1Nc1cc(C2CCC2)[nH]n1 [Compound 297]	< 200
COc1cc(Nc2ncc(Br)c(Oc3ccccc3C(F)(F)F)n2)cc(OC)c1OC [Compound 299]	< 200
O=C1CCCc2cc(Nc3ncc(C(F)(F)F)c(NC4CC4)n3)ccc21 [Compound 301]	< 200

Compound	IC50 [nM]
COc1cc(Nc2ncc(Br)c(Nc3ccccc3CO)n2)cc(OC)c1OC [Compound 303]	< 200
FC(F)(F)c1cnc(Nc2ccc3c(c2)CCNC3)nc1NC1CC1 [Compound 309]	< 200
CC(C)(C)OC(=O)NCCCNc1nc(Nc2ccc3c(c2)CCC(=O)N3)ncc1C(F)(F)F [Compound 310]	< 200
O=C(C1CC1)N(C(=O)C1CC1)c1ccc(Nc2ncc(C(F)(F)F)c(NC3CC3)n2)cc1 [Compound 311]	< 200
O=C(Nc1ccc(Nc2ncc(C(F)(F)F)c(NC3CC3)n2)cc1)C1CC1 [Compound 312]	< 200
NCCCNc1nc(Nc2ccc3c(c2)CCC(=O)N3)ncc1C(F)(F)F [Compound 313]	< 200
O=C1NC(=O)c2cc(Nc3ncc(C(F)(F)F)c(NC4CC4)n3)ccc21 [Compound 314]	< 200
CNC(=O)CCOc1nc(Nc2cc(OC)c(OC)c(OC)c2)ncc1Br [Compound 316]	< 200
COc1cc(Nc2ncc(Br)c(Nc3ccccc3O)n2)cc(OC)c1OC [Compound 317]	< 200
COc1cc(Nc2ncc(Br)c(Oc3ccccc3NC(=O)C(C)(C)C)n2)cc(OC)c1OC [Compound 320]	> 2000
COc1cc(Nc2ncc(Br)c(Oc3ccccc3NC(=O)C(F)(F)F)n2)cc(OC)c1OC [Compound 323]	< 200
CNC(=O)c1ccccc1Oc1nc(Nc2ccc3c(c2)CCC(=O)N3)ncc1Br [Compound 325]	> 2000
Oc1nc(Nc2cnc3[nH]ccc3c2)ncc1C(F)(F)F [Compound 326]	> 2000
CNC(=O)Cc1ccccc1Oc1nc(Nc2cc(OC)c(OC)c(OC)c2)ncc1Br [Compound 327]	> 2000
COc1cc(Nc2ncc(Br)c(Oc3ccccc3CNC(C)=O)n2)cc(OC)c1OC [Compound 328]	> 2000
O=C(C1CC1)N1CCc2cc(Nc3ncc(C(F)(F)F)c(NC4CC4)n3)ccc2C1 [Compound 332]	< 200
O=C1CCc2cc(Nc3ncc(C(F)(F)F)c(NCCCNC(=O)C4CC4)n3)ccc2N1 [Compound 333]	< 200
O=c1[nH][nH]c(=O)c2cc(Nc3ncc(C(F)(F)F)c(NC4CC4)n3)ccc12 [Compound 334]	< 200
COc1cc(Nc2ncc(Br)c(Oc3ccccc3O)n2)cc(OC)c1OC [Compound 336]	> 2000
CNC(=O)c1ccccc1COc1nc(Nc2cc(OC)c(OC)c(OC)c2)ncc1Br [Compound 338]	> 2000
CCN1CCOc2cc(Nc3nc(Nc4ccc5c(c4)CCC(=O)N5)ncc3Br)cnc21 [Compound 343]	< 200
CCN1CCOc2cc(Nc3ncc(C(F)(F)F)c(NC4CC4)n3)cnc21 [Compound 344]	< 200

Further lines, results first:

IC50 [nM]	Compound
> 2000	O=[N+]([O-])c1cnc(NC2CC2)nc1NC1CC1 [Compound 291b]
> 2000	O=C1CCc2cc(Nc3ncc(C(F)(F)F)c(Oc4ccccc4)n3)ccc2N1 [Compound 300a]
> 2000	O=C1CCc2cc(Nc3nc(Oc4ccccc4)ncc3C(F)(F)F)ccc2N1 [Compound 300b]
< 200	Nc1ccc(Nc2ncc(C(F)(F)F)c(NC3CC3)n2)cc1 [Compound 304a]
> 2000	FC(F)(F)c1cnc(Nc2ccc(Nc3ncc(C(F)(F)F)c(NC4CC4)n3)cc2)nc1NC1CC1 [Compound 304b]
> 2000	CNC(=O)c1ccc(OC)cc1Oc1ncc(Br)c(Nc2cc(OC)c(OC)c(OC)c2)n1 [Compound 318b]
> 2000	CC(=O)Nc1ccccc1Oc1nc(Nc2ccc3c(c2)OCO3)ncc1Br [Compound 321a]
< 200	Nc1ccccc1Oc1nc(Nc2ccc3c(c2)OCO3)ncc1Br [Compound 321b]
> 2000	COc1cc(Nc2ncc(Br)c(Oc3cccc4cccnc34)n2)cc(OC)c1OC [Compound 324a]
> 2000	COc1cc(Nc2ncc(Br)c(Oc3cccc4cc[nH]c34)n2)cc(OC)c1OC [Compound 329a]
> 2000	COc1cc(Nc2nc(Oc3cccc4cc[nH]c34)ncc2Br)cc(OC)c1OC [Compound 329b]
> 2000	COc1cc(Nc2ncc(Br)c(Oc3cccc4c3CCCC4)n2)cc(OC)c1OC [Compound 330a]
> 2000	COc1cc(Nc2nc(Oc3cccc4c3CCCC4)ncc2Br)cc(OC)c1OC [Compound 330b]
> 2000	COc1cc(Nc2ncc(Br)c(-n3nnc4ccccc43)n2)cc(OC)c1OC [Compound 331a]
200 to 2000	COc1cc(Nc2nc(-n3nnc4ccccc43)ncc2Br)cc(OC)c1OC [Compound 331b]
> 2000	COc1cc(Nc2ncc(Br)c(Oc3cccc4c3N(C(C)=O)CCC4)n2)cc(OC)c1OC [Compound 335a]
< 200	COc1cc(Nc2nc(Oc3cccc4c3N(C(C)=O)CCC4)ncc2Br)cc(OC)c1OC [Compound 335b]
